What follows are molecules tested against URAT-1 (uric acid transporter) (Homo sapiens (Human), UniProt Q96S37) (assay: Inhibition of 14C uric acid transport by HEK293 cell line stably transfected with the URAT-1 gene). Settings: URAT-1 (HEK293) cells; 14C-labelled uric acid 50 um, 10 min at 37° C.; read-out: IC50 (inhibition against URAT-1).
Assay type: cell-based
Protocol: Determination of the IC50 value of the inhibitory activity of the compound against uric acid reabsorption by the HEK293 cell line stably transfected with the URAT-1 (uric acid transporter) gene.
URAT-1 (HEK293) cell line: the HEK293 cell line stably transfected with the URAT-1 gene
cell culture medium: DMEM culture medium added 10% fetal bovine serum (FBS), 1% sodium pyruvate and […] G418.
Uric acid solution labeled by ^14C.
1) the supernatant of cell culture was aspirated, and cells was washed with 10 mL PBS.
2) preheated trypsin was added into the cell culture flask, and the cell culture flask was rotated to make trypsin covering onto the bottom of cell culture flask equably.
3) the cells were suspended with 10-15 mL of culture medium in each T150 flask, took 0.1 mL of cell suspension and diluted it with two volumes of trypan blue solution to count the cells.
4) cells were diluted to 2.5×10^5/mL with the culture medium, and the diluted cells were added into a rat tail collagen-coated 24-well plate (800 uL/well, 2×10^5 cells/well). The plate was incubated overnight at 37° C. in a 5% CO2 incubator.
1) cells were seeded into 24-well plate, and supernatant was discarded after 16-18 h. The cells were washed twice using 600 ul HBSS buffer.
2) HBSS buffer was removed and 180 ul of HBSS buffer was added into each well again.
1) compounds were dissolved into 100% DMSO, and diluted into 6 concentration points by 3-fold dilution, or into 2 concentration points by 10-fold dilution, and the highest starting concentration was 50 mM.
2) 5 ul DMSO solution in step 1) was transferred into 120 ul of HBSS buffer to make a 25-fold dilution.
3) 10 ul diluted solution in step 2) was added into 24-well plate, and the plate was incubated for 15 min at 37° C. in a 5% CO2 incubator. The final concentration of DMSO is 0.2%. The control well contained 0.2% DMSO without compound.
^14C-labelled uric acid was diluted and added into plate, and the final concentration is 50 um. The plate was incubated for 10 min at 37° C. in a 5% CO2 incubator. After supernatant was discarded, cells were washed with HBSS buffer twice. Cells was lysed with 0.1M NaOH. And then cell lysis solution was collected into liquid scintillation tube and added with liquid scintillation solution. The signal was read by liquid scintillation counter Tri-Carb. e) data analysis URAT-1 inhibition by the treatment of the compounds was analyzed by calculating the percentage of inhibition. Non-linear fitting analysis of percent inhibition (inh %) data using GraphPad Prism software to generate the IC50 value.

Sequence of URAT-1 (uric acid transporter) (Q96S37 whole entry): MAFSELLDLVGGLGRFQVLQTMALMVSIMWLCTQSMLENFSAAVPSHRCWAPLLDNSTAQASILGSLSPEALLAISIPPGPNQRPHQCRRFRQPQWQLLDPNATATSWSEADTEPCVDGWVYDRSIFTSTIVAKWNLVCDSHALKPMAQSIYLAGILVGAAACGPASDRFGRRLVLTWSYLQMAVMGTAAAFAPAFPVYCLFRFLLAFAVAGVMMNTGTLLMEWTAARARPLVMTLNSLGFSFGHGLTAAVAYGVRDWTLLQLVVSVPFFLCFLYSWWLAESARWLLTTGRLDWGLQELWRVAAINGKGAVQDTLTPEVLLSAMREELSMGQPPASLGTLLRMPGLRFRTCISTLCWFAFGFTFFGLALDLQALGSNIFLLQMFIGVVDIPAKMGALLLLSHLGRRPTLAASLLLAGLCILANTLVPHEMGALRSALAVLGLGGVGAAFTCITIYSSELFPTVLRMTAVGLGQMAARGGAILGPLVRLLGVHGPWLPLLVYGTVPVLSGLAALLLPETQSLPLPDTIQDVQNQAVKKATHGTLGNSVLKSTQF

Structure (SMILES) | IC50 [µM]
O=C(O)C1(Sc2nnc(Br)n2-c2cc(Cl)c(C3CC3)s2)CCCC1 [WX069] | < 2
CCOC(=O)CSc1nncn1-c1cc(Br)c(C2CC2)s1 [WX072] | > 20
COC(=O)CSc1nncn1-c1cc(Br)c(-c2ccccc2)s1 [WX073] | > 20
CCOC(=O)C(C)Sc1nncn1-c1cc(Br)c(C2CC2)s1 (centres unmarked) [WX074] | > 20
CCOC(=O)C(C)(C)Sc1nncn1-c1cc(Br)c(C2CC2)s1 [WX076] | 2 to 20
COC(=O)C(C)(C)Sc1nncn1-c1cc(Br)c(-c2ccccc2)s1 [WX077] | > 20
Cc1cc(-n2c(Br)nnc2SC2(C(=O)O)CCCC2)sc1C1CC1 [WX092] | < 2
Cc1cc(-n2c(Br)nnc2SC2(C(=O)O)CCC2)sc1C1CC1 [WX093] | < 2
Cc1cc(-n2cnnc2SCC(=O)O)sc1-c1ccc(C(C)(C)C)cc1 [WX098] | > 20
O=C(O)CSc1nnc(Br)n1-c1sc(-c2ccccc2)c2c1OCCO2 [WX099] | > 20
CCOC(=O)C(C)(C)Sc1nnc(Br)n1-c1sc(C(=O)Nc2ccc(F)c(F)c2)c2c1CCCC2 [WX100] | > 20
CC(C)c1nnc(SCC(=O)O)n1-c1sc(C2CC2)c2c1CCC2 [WX101] | > 20
CC(C)(Sc1nnc(Br)n1-c1sc(C2CC2)c2c1CCC2)C(=O)NO [WX102] | 2 to 20
CCOC(=O)C(C)(C)Sc1nncn1-c1sc(C(=O)NC(O)CCBr)c2c1CCCC2 (centres unmarked) [WX103] | 2 to 20

Continued, values first:

IC50 [µM] | Structure (SMILES)
2 to 20 | CC(Sc1nnc(Br)n1-c1cc(Cl)c(C2CC2)s1)C(=O)O (centres unmarked) [WX070]
2 to 20 | COc1ccc(-c2sc(-n3c(Br)nnc3SC(C)(C)C(=O)O)cc2Cl)cc1 [WX071]
2 to 20 | COC(=O)C(C)Sc1nncn1-c1cc(Br)c(-c2ccccc2)s1 (centres unmarked) [WX075]
> 20 | Cc1cc(-n2c(Br)nnc2SCC(=O)O)sc1C1CC1 [WX078]
2 to 20 | Cc1cc(-n2c(Br)nnc2SCC(=O)O)sc1-c1ccccc1 [WX079]
2 to 20 | Cc1cc(-n2c(Br)nnc2SC(C)C(=O)O)sc1-c1ccccc1 (centres unmarked) [WX080]
2 to 20 | Cc1cc(-n2c(Br)nnc2SC(C)(C)C(=O)O)sc1-c1ccccc1 [WX081]
> 20 | Cc1cc(-n2c(Br)nnc2SCC(=O)O)sc1-c1ccc(F)cc1 [WX082]
> 20 | COc1ccc(-c2sc(-n3c(Br)nnc3SCC(=O)O)cc2C)cc1 [WX083]
> 20 | Cc1cc(-n2c(Br)nnc2SCC(=O)O)sc1-c1ccc(C(F)(F)F)cc1 [WX084]
> 20 | Cc1cc(-n2c(Br)nnc2SCC(=O)O)sc1-c1ccc(C(C)(C)C)cc1 [WX085]
2 to 20 | Cc1cc(-n2c(Br)nnc2SC(C)C(=O)O)sc1-c1ccc(Cl)cc1 (centres unmarked) [WX086]
2 to 20 | Cc1cc(-n2c(Br)nnc2SC(C)C(=O)O)sc1-c1cccc(F)c1 (centres unmarked) [WX087]
< 2 | Cc1cc(-n2c(Br)nnc2SC(C(=O)O)C(C)C)sc1C1CC1 (centres unmarked) [WX088]
2 to 20 | Cc1cc(-n2c(Br)nnc2SC(C)(C)C(=O)O)sc1C1CC1 [WX089]
2 to 20 | Cc1cc(-n2c(Br)nnc2SC(C(=O)O)c2ccccc2)sc1C1CC1 (centres unmarked) [WX090]
< 2 | CCC(Sc1nnc(Br)n1-c1cc(C)c(C2CC2)s1)C(=O)O (centres unmarked) [WX091]
< 2 | Cc1cc(-n2c(Br)nnc2SC(C)C(=O)O)sc1C1CC1 (centres unmarked) [WX094]
> 20 | Cc1cc(-n2cnnc2SCC(=O)O)sc1-c1ccc(F)cc1 [WX095]
> 20 | COc1ccc(-c2sc(-n3cnnc3SCC(=O)O)cc2C)cc1 [WX096]
> 20 | Cc1cc(-n2cnnc2SCC(=O)O)sc1-c1ccc(C(F)(F)F)cc1 [WX097]

From patent US10829483B2, “Thiophene, manufacturing method thereof, and pharmaceutical application of same” (CSTONE PHARMACEUTICAL (SUZHOU) CO., LTD., priority 2016, dated 2020)
